Tested on: thoracic aorta blood vessel plaque
Conditions: high fat/high cholesterol fed rabbit; 5-ALA 80 mg/kg intraperitoneal 1.5 h before; substrate (carbamide peroxide) intravenously infused; irradiation once with 5 Gy; examined on the seventh day
Source text: The New-Zealand rabbit model of blood vessel plaque is a common animal experimental model. […] The blood vessel plaque was taken as the target region and positioned, and a radiotherapy plan was made.

NCC(=O)CCC(=O)O [5-ALA]
regression of thoracic aorta blood vessel plaque (CTA angiography and MR): completely disappeared

From patent publication US20140257169A1, “USE OF PHOTO[…] PREPARATION OF VIRUS-INACTIVATING MEDICAMENTS FOR TREATING DISEASES” (Beijing Ecyber Medical Technology R & D Center Co. , Ltd., priority 2013, published 2014)
